The source made the active and inactive calls. The calls are words filed in the database; no cut-off is given here.
How the values were obtained:
[1] = system: Mus musculus; experiment: Anticonvulsant activity against maximal electroshock-induced seizures in mouse at 100 mg/kg, ip after 0.5 hrs; type: functional, organism-based; design: dose 100 mg/kg
[2] = system: Mus musculus; experiment: Neurotoxicity in mouse at 100 mg/kg, ip after 4 hrs by rotarod test; type: toxicity, organism-based; design: dose 100 mg/kg, route intraperitoneal; conditions: in vivo
[3] = system: Mus musculus; experiment: Anticonvulsant activity against maximal electroshock-induced seizures in mouse at 300 mg/kg, ip after 0.5 hrs; type: functional, organism-based; design: dose 300 mg/kg
[4] = system: Mus musculus; experiment: Neurotoxicity in mouse at 300 mg/kg, ip after 4 hrs by rotarod test; type: toxicity, organism-based; design: dose 300 mg/kg, route intraperitoneal; conditions: in vivo
[5] = system: Mus musculus; experiment: Anticonvulsant activity against scMet-induced seizures in mouse at 300 mg/kg, ip after 0.5 hrs; type: functional, organism-based; design: dose 300 mg/kg
[6] = system: Mus musculus; experiment: Anticonvulsant activity against maximal electroshock-induced seizures in mouse at 300 mg/kg, ip after 4 hrs; type: functional, organism-based; design: dose 300 mg/kg
[7] = system: Mus musculus; experiment: Anticonvulsant activity against scMet-induced seizures in mouse at 30 mg/kg, ip after 0.5 hrs; type: functional, organism-based; design: dose 30 mg/kg
[8] = system: Mus musculus; experiment: Anticonvulsant activity against scMet-induced seizures in mouse at 100 mg/kg, ip after 0.5 hrs; type: functional, organism-based; design: dose 100 mg/kg
[9] = system: Mus musculus; experiment: Anticonvulsant activity against scMet-induced seizures in mouse at 100 mg/kg, ip after 4 hrs; type: functional, organism-based; design: dose 100 mg/kg
[10] = system: Mus musculus; experiment: Anticonvulsant activity against scMet-induced seizures in mouse at 30 mg/kg, ip after 4 hrs; type: functional, organism-based; design: dose 30 mg/kg
[11] = system: Mus musculus; experiment: Anticonvulsant activity against maximal electroshock-induced seizures in mouse at 100 mg/kg, ip after 1 hr; type: functional, organism-based; design: dose 100 mg/kg
[12] = system: Mus musculus; experiment: Neurotoxicity in mouse at 100 mg/kg, ip after 0.25 hrs by rotarod test; type: toxicity, organism-based; design: dose 100 mg/kg, route intraperitoneal; conditions: in vivo
[13] = system: Mus musculus; experiment: Neurotoxicity in mouse at 30 mg/kg, ip after 4 hrs by rotarod test; type: toxicity, organism-based; design: dose 30 mg/kg, route intraperitoneal; conditions: in vivo
[14] = system: Mus musculus; experiment: Anticonvulsant activity against maximal electroshock-induced seizures in mouse at 30 mg/kg, ip after 4 hrs; type: functional, organism-based; design: dose 30 mg/kg
[15] = system: Mus musculus; experiment: Anticonvulsant activity against maximal electroshock-induced seizures in mouse at 30 mg/kg, ip after 0.5 hrs; type: functional, organism-based; design: dose 30 mg/kg
[16] = system: Mus musculus; experiment: Anticonvulsant activity against scMet-induced seizures in mouse at 300 mg/kg, ip after 4 hrs; type: functional, organism-based; design: dose 300 mg/kg
[17] = system: Rattus norvegicus; experiment: Anticonvulsant activity against maximal electroshock-induced seizures in rat at 30 mg/kg, po after 0.5 hrs; type: functional, organism-based; design: dose 30 mg/kg
[18] = system: Rattus norvegicus; experiment: Neurotoxicity in rat at 30 mg/kg, po after 0.25 hrs by rotarod test; type: toxicity, organism-based; design: dose 30 mg/kg, route oral; conditions: in vivo
[19] = system: Mus musculus; experiment: Neurotoxicity in mouse at 10 mg/kg, ip after 0.5 hrs by rotarod test; type: toxicity, organism-based; design: dose 10 mg/kg, route intraperitoneal; conditions: in vivo
[20] = system: Mus musculus; experiment: Neurotoxicity in mouse at 10 mg/kg, ip after 4 hrs by rotarod test; type: toxicity, organism-based; design: dose 10 mg/kg, route intraperitoneal; conditions: in vivo
[21] = system: Mus musculus; experiment: Anticonvulsant activity against maximal electroshock-induced seizures in mouse at 10 mg/kg, ip after 4 hrs; type: functional, organism-based; design: dose 10 mg/kg
[22] = system: Rattus norvegicus; experiment: Anticonvulsant activity against maximal electroshock-induced seizures in rat at 30 mg/kg, po after 1 hr; type: functional, organism-based; design: dose 30 mg/kg
[23] = system: Mus musculus; experiment: Neurotoxicity in mouse at 3 mg/kg, ip after 0.5 hrs by rotarod test; type: toxicity, organism-based; design: dose 3 mg/kg, route intraperitoneal; conditions: in vivo
[24] = system: Rattus norvegicus; experiment: Neurotoxicity in rat at 30 mg/kg, po after 0.5 hrs by rotarod test; type: toxicity, organism-based; design: dose 30 mg/kg, route oral; conditions: in vivo
[25] = system: Rattus norvegicus; experiment: Neurotoxicity in rat at 30 mg/kg, po after 1 hr by rotarod test; type: toxicity, organism-based; design: dose 30 mg/kg, route oral; conditions: in vivo
[26] = system: Rattus norvegicus; experiment: Neurotoxicity in rat at 30 mg/kg, po after 2 hrs by rotarod test; type: toxicity, organism-based; design: dose 30 mg/kg, route oral; conditions: in vivo
[27] = system: Mus musculus; experiment: Anticonvulsant activity against maximal electroshock-induced seizures in mouse at 10 mg/kg, ip after 0.5 hrs; type: functional, organism-based; design: dose 10 mg/kg
[28] = system: Rattus norvegicus; experiment: Neurotoxicity in rat at 30 mg/kg, po after 4 hrs by rotarod test; type: toxicity, organism-based; design: dose 30 mg/kg, route oral; conditions: in vivo
[29] = system: Rattus norvegicus; experiment: Anticonvulsant activity against maximal electroshock-induced seizures in rat at 30 mg/kg, po after 2 hrs; type: functional, organism-based; design: dose 30 mg/kg
[30] = system: Mus musculus; experiment: Anticonvulsant activity against scMet-induced seizures in mouse at 10 mg/kg, ip after 4 hrs; type: functional, organism-based; design: dose 10 mg/kg
[31] = system: Mus musculus; experiment: Neurotoxicity in mouse at 300 mg/kg, ip after 0.5 hrs by rotarod test; type: toxicity, organism-based; design: dose 300 mg/kg, route intraperitoneal; conditions: in vivo
[32] = system: Mus musculus; experiment: Neurotoxicity in mouse at 30 mg/kg, ip after 0.5 hrs by rotarod test; type: toxicity, organism-based; design: dose 30 mg/kg, route intraperitoneal; conditions: in vivo
[33] = system: Mus musculus; experiment: Anticonvulsant activity against maximal electroshock-induced seizures in mouse at 3 mg/kg, ip after 0.5 hrs; type: functional, organism-based; design: dose 3 mg/kg
[34] = system: Rattus norvegicus; experiment: Anticonvulsant activity against maximal electroshock-induced seizures in rat at 30 mg/kg, po after 4 hrs; type: functional, organism-based; design: dose 30 mg/kg
[35] = system: Mus musculus; experiment: Anticonvulsant activity against scMet-induced seizures in mouse at 10 mg/kg, ip after 0.5 hrs; type: functional, organism-based; design: dose 10 mg/kg

## C[C@@H](CCl)NCc1ccc2oc3cc(Cl)ccc3c(=O)c2c1.Cl
[1]
  Activity: inactive
[2]
  Neurotoxicity: Not Active
[3]
  Activity: Active
[4]
  Neurotoxicity: Not Active
[5]
  Activity: inactive
[6]
  Activity: Active
[7]
  Activity: inactive
[8]
  Activity: inactive
[9]
  Activity: inactive
[10]
  Activity: inactive
[11]
  Activity: inactive
[12]
  Neurotoxicity: Not Active
[13]
  Neurotoxicity: Not Active
[14]
  Activity: inactive
[15]
  Activity: inactive
[16]
  Activity: inactive

## CCN(CCO)Cc1ccc2oc3cc(Cl)ccc3c(=O)c2c1
[17]
  Activity: inactive
[1]
  Activity: Active
[18]
  Neurotoxicity: Not Active
[19]
  Neurotoxicity: Not Active
[20]
  Neurotoxicity: Not Active
[2]
  Neurotoxicity: Neurotoxic
[21]
  Activity: inactive
[22]
  Activity: inactive
[23]
  Neurotoxicity: Not Active
[24]
  Neurotoxicity: Not Active
[25]
  Neurotoxicity: Not Active
[26]
  Neurotoxicity: Not Active
[27]
  Activity: Active
[7]
  Activity: inactive
[28]
  Neurotoxicity: Not Active
[8]
  Activity: inactive
[29]
  Activity: inactive
[30]
  Activity: inactive
[9]
  Activity: inactive
[10]
  Activity: inactive
[31]
  Neurotoxicity: Neurotoxic
[32]
  Neurotoxicity: Not Active
[33]
  Activity: inactive
[13]
  Neurotoxicity: Not Active
[14]
  Activity: inactive
[15]
  Activity: inactive
[34]
  Activity: inactive
[35]
  Activity: inactive

Reference: ChEMBL document CHEMBL1155915, “Anticonvulsant activity of some xanthone derivatives” (Bioorg Med Chem, 2008)
